In patent US7892764B2, “System for seizure suppression” (priority 2006, dated 2011):

Key:
Type in all cases: cell-based
[1] = target: T1, ASIC current (Mus musculus, UniProt Q6NXK8); experiment: Acid-induced (pH 6.0) ASIC current in mouse cortical neurons, patch-clamp recording; details: read-out: IC50 (concentration at 50% inhibition) of ASIC current amplitude; pH drop 7.4 to 6.0, holding potential −60 mV
T1 sequence (Q6NXK8 1-526): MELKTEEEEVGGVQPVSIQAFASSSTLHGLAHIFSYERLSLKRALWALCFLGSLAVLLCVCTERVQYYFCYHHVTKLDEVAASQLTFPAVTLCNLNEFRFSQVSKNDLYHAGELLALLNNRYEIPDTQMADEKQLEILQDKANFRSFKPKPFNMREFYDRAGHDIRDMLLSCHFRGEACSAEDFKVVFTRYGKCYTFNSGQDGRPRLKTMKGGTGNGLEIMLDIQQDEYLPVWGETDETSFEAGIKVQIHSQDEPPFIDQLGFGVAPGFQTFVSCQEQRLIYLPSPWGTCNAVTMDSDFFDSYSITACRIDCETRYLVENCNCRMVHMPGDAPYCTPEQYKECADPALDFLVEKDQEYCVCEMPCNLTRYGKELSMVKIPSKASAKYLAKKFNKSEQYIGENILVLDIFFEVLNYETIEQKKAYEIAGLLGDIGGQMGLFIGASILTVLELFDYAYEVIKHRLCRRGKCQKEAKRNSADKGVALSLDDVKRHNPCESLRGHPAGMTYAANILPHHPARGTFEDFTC
Description: Mouse cortical neurons in culture were monitored electrophysiologically by patch-clamp recording of current at a holding potential of −60 mV. An ASIC current was induced at this holding potential by dropping the extracellular pH from physiological pH (pH 7.4) to pH 6.0, in the presence of different concentrations of benzamil (FIG. 11) or EIPA (FIG. 12). The current traces obtained are presented in the upper part of FIGS. 11 and 12. […] Therefore, amiloride derivatives inhibit ASIC channel activity and may be used for seizure suppression in subjects prone to seizures and/or having a seizure.

[2] = test system: ASIC current; experiment: Effect of antiepileptic agents on ASIC current activated by pH drop from 7.4 to 6.0 in isolated neurons
Description: Activation of ASICs may be involved in increased neuronal excitability and thus seizure generation. Inhibition of ASICs, on the other hand, is expected to be antiepileptic. To test this hypothesis further, we performed a study to examine the effect of currently available antiepileptic agents—particularly those agents for which the mechanism of action is not fully understood—on ASIC currents. We suspected that some of the current antiepileptic agents may, in fact, exert their antiepileptic effect partially through their inhibition of an ASIC current. Three commonly used antiepileptic agents were tested on an ASIC current activated by a pH drop from 7.4 to 6.0. […] Perfusion of lamotrigine (1 mM), however, inhibited the current by 43±13% (n=3, p<0.05, FIG. 15B), whereas perfusion of 1 mM felbamate reduced the amplitude of the ASIC current by nearly 60% (n=3. FIG. 15C).

[3] = test system: mouse hippocampal slices; experiment: Low Mg2+-induced epileptiform bursting activity (evoked and spontaneous) in hippocampal slices; details: 200 ng/mL PcTX1 venom or 20 nM synthetic PcTX1, absence of Mg2+
Experimental: Limbic seizures (Avoli et al., 2002) are modeled by removing Mg^2+ from artificial cerebral spinal fluid (aCSF) in slices of hippocampal-entorhinal cortex, which triggers interictal-like bursting activity, or spontaneous ictal-like events (Wong et al., 2001; Anderson et al., 1986). In the presence of normal Mg^2+ (1.5 mM), stimulation of Schaffer collaterals induces single population spike or EPSP in the CA1 region of the hippocampus. […] Perfusion with Mg^2+-free aCSF for about 30 min evoked synchronous burst firing with the same stimulation intensity. In about, 30% of the slices, spontaneous clustered bursts developed in the absence of electrical stimulation. Bath perfusion of amiloride or PcTX1 for 10 min reduced the amplitude and frequency of evoked bursting activity (FIGS. 5A and 5B). Amiloride (100 μM) reduced the amplitude of the first and the second population spikes (from 1.2±0.2 mV to 0.5±0.2 mV and 0.6±0.03 mV to 0.2±0.05 mV, respectively (n=9: p<0.01, FIGS. 5A and 5B), and the number of population spikes (from 4.7±0.6 to 3.3±0.8, n=9, p<0.05)). Similarly, PcTX1 (200 ng/mL) attenuated the amplitude of the population spike (from 2.1±0.3 to 1.6±0.2 mV, n=9, p<0.05) and the number of spikes (from 4.2±0.6 to 3.0±0.6, p<0.05).
Preparation of hippocampal slices and brain slice recording. Hippocampal slices were obtained from 8- to 10-week-old mice. The protocol for brain-slice recording was approved by the Institutional Animal Care and Use Committee of Legacy Research. Animals were deeply anesthetized with isoflurane and decapitated. Brains were quickly removed and placed in ice-cold solution that contained: 125 mM sucrose, 2.5 mM KCl, 26 mM NaHCO3, 1.25 mM NaHPO4, 6.0 mM […], 0.5 mM CaCl2, and 10 mM glucose, and was saturated with 95% O2 and 5% CO2 (pH 7.4). Hippocamnpal slices were cut in 400 μm thickness in transverse plane with a vibratome (Leica VT 1000S) and placed in a slice holding chamber (BSC-PC Prechamber, Warner Instrument) and incubated in normal artificial cerebral spinal fluid (aCSF) that contained: 125 mM NaCl, 2.5 mM KCl, 26 mM NaHCO3, 1.25 mM […], 1.0 mM MgSO4, 2.0 mM CaCl2, and 10 mM glucose, and was saturated with 95% O2 and 5% CO2 (pH 7.4).
Following ˜60 min of incubation at room temperature, individual slices were transferred to a submerged slice chamber with a volume of 0.5 mL (Warner Instruments, Hamden, Conn.) and perfused with oxygenated aCSF (35° C.) at a rate of 3-4 mL/min. Recording electrodes were pulled from borosilicate glass and filled with aCSF. The population spike and the field excitatory postsynaptic potentials (fEPSP) were recorded in stratum pyramidale and striatum radiatum of hippocampal CA1 region, by stimulating Schaffer Collaterals.
For low Mg^2+ induced epileptic burst activity, Mg^2+-free aCSF was perfused to the slices for ˜30 min. For stimulus-train induced bursting discharges (STIB), each stimulation train consisted of 120 pulses at 60 Hz and each pulse was 100 μsec in duration (Stasheff et al., 1985). A 10-minute interval of non-stimulation was provided between successive trains of high frequency stimulation. Stimulation electrodes were located in striatum radiatum between CA1 and CA3 region. The population spikes were recorded from striatum pyramidale of the CA3 region.
Pharmacological and electrical bursting models. To induce epileptic burst discharges, Mg^2+-free aCSF was applied. Mg^2+-free aCSF was obtained by simply omitting MgSO4 from aCSF.

[4] = target: T2, ASICs (Mus musculus, UniProt Q6NXK8); experiment: Acid (pH 7.0/7.1)-induced membrane depolarization and neuronal firing, current-clamp recording; details: pH 7.0; amiloride 100 μM or synthetic PcTX1 20 nM
T2 construct: Primary neuronal cultures were prepared from embryonic Swiss mice at 15 to 16 days of gestation; endogenous in cells
T2 sequence (Q6NXK8 1-526): T1 sequence (Q6NXK8 1-526)
Description: Unlike ischemia, only moderate pH changes (e.g., ˜0.3 pH unit) are reported in brain parenchyma during seizures (Chesler et al., 1988: Chesler et al., 1992), although pH in the synaptic cleft may be much lower (Chesler et al., 1992; Wemmie et al., 2006). […] One possibility is that voltage-clamp recording has relatively low sensitivity to resolve small current in whole-cell configuration. To provide more evidence that the decreases of pHo to the level seen in epilepsy can indeed activate the ASICs and cause neuronal excitation, we have also used current-clamp recording to study changes of membrane depolarization and neuronal firing by small changes of pHo. Due to the large input resistance of most CNS neurons (e.g., ˜500 MΩ), even a small membrane current (e.g., 10-20 pA, which is difficult to resolve in voltage-clamp recording in general) can induce significant membrane depolarization in current-clamp conditions. Mouse cortical neurons were used for current-clamp recordings 14 days after the culture.
Cortical neuronal culture. Primary neuronal cultures were prepared from embryonic Swiss mice at 15 to 16 days of gestation according to our previously described techniques (Xiong et al., 2004). In brief, cerebral cortices from 10 to 12 embryos were dissected and incubated with 0.05% trypsin-EDTA for 10 min, dissociated by trituration with a fire-polished glass pipette, and plated on poly-L-ornithine-coated culture dishes at a density of 0.5×10^6 cells per dish. Neurons were cultured with Neurobasal medium supplemented with B27 (Invitrogen). The cultures were maintained at 37° C. in a humidified 5% CO2 atmosphere incubator and were used for experiments after 12-14 days.
Patch clamp techniques. Whole-cell voltage-clamp and current-clamp recordings were performed as described in our previous studies (Xiong et al., 2004). […] Whole-cell currents were recorded using Axopatch 200B amplifiers with pCLAMP software (Axon Instruments, CA, USA). […]

CCN(c1nc(N)c(C(=O)N=C(N)N)nc1Cl)C(C)C [EIPA, 5-(N-ethyl-N-isopropyl)-amiloride]
IC50 [1]: ~20 µM

CCC1(C)CC(=O)NC1=O (stereo not shown) [ethosuximide]
effect on amplitude of the ASIC current ([2]; 1 mM, bath application 5 min, pH drop from 7.4 to 6.0): did not affect

NC(=O)OCC(COC(N)=O)c1ccccc1 [felbamate]
inhibition of ASIC current amplitude ([2]; 1 mM, pH drop from 7.4 to 6.0): ~60%

Nc1nnc(-c2cccc(Cl)c2Cl)c(N)n1 [lamotrigine]
effect on desensitization of the ASIC current [2]: enhances the desensitization
inhibition of ASIC current amplitude ([2]; 1 mM, pH drop from 7.4 to 6.0): 43±13%

synthetic PcTX1: chemically synthesized PcTX1 peptide, used at 20 nM
effect on frequency of spontaneous clustered bursting activity [3]: reduced the frequency
effect on acid-induced neuronal excitation (membrane depolarization, firing rate) [4]: largely and significantly reduced
